Data taken from the supplement of paper PMC4862054.
“And” between values parts separate entries of the source, which are not always exact repeats. Equal values may be shown once.

Legend:
Conditions in all cases: incubation time: 72 h
HCC1143 [1] = test: drug sensitivity score (DSS), CellTiter-Blue viability (DSS (AUC-based score)); higher = stronger viability inhibition; extreme values may be limits of the assay
Experimental: (§1)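 DSRT with the CellTiter-Blue (resazurin reduction) viability readout, fluorescence 560/590 nm, 72 h incubation. Plates were normalised to DMSO and benzethonium chloride controls. DSS is computed from the area under the fitted dose-response curve (5 or 9 concentrations).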

MFM-223 [2] = test: as above
Experimental: as §1

SK-BR-3 [3] = test: as above
Experimental: as §1

BT-474 = test: as above
Experimental: as §1

HCC1599 [4] = test: as above
Experimental: as §1

CAL-85-1 [5] = test: as above
Experimental: as §1

MDA-MB-436 [6] = test: as above
Experimental: as §1

MDA-MB-231 [7] = test: as above
Experimental: as §1

HDQ-P1 [8] = test: as above
Experimental: as §1

HCC1143 [9] = test: normalised viability (% of control), CellTiter-Blue; higher = more viable cells (about 100 = DMSO control)
How it was run: (§2)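 The reported figure is normalised viability at a single listed concentration of the series. Breast cancer cell lines (20 µl suspension) went onto 384-well plates holding compound in 5 µl medium for 72 h. CellTiter-Blue (2.5 µl, 2 h, 37 °C) was read by fluorescence at 560/590 nm, and each plate was scaled to vehicle at 100 and a positive kill control at 0.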

MFM-223 [10] = test: as above
How it was run: as §2

SK-BR-3 [11] = test: as above
How it was run: as §2

CAL-148 = test: as above
How it was run: as §2

HCC1599 [12] = test: as above
How it was run: as §2

BT-549 = test: as above
How it was run: as §2

CAL-85-1 [13] = test: as above
How it was run: as §2

MDA-MB-436 [14] = test: as above
How it was run: as §2

CAL-120 = test: as above
How it was run: as §2

HCC1937 = test: as above
How it was run: as §2

MDA-MB-468 = test: as above
How it was run: as §2

MDA-MB-231 [15] = test: as above
How it was run: as §2

HDQ-P1 [16] = test: as above
How it was run: as §2

DU-4475 = test: as above
How it was run: as §2

MDA-MB-453 = test: as above
How it was run: as §2

C[C@]12C=CC(=O)C=C1CC[C@@H]1[C@@H]2C(=O)C[C@@]2(C)[C@H]1CC[C@]2(O)C(=O)CO [Prednisone]
Conditions | drug sensitivity score
BT-474 | 0
CAL-85-1 [5] | 0
HCC1143 [1] | 0
HCC1599 [4] | 0
HDQ-P1 [8] | 0
MDA-MB-231 [7] | 0
MDA-MB-436 [6] | 0
MFM-223 [2] | 0
SK-BR-3 [3] | 0

normalised viability [%]
Conditions | 3 nM | 10 nM | 30 nM | 100 nM | 1000 nM | 10000 nM
BT-549 | – | 96.7 | – | – | 107 | 108
CAL-85-1 [13] | 95.8 | – | 102 | 90.9 | – | –
CAL-120 | – | 79.9 | – | – | 79.3 | 96.3
CAL-148 | 94.8 | – | 97.4 | 104 | – | –
DU-4475 | 90.2 | – | 94.9 | 88.4 | – | –
HCC1143 [9] | – | 91 | – | – | 89.1 | 86.8
HCC1599 [12] | – | 102 | – | – | 103 | 94
HCC1937 | – | 95.7 | – | – | 105 | 98.9
HDQ-P1 [16] | 98.3 | – | 110 | 114 | – | –
MDA-MB-231 [15] | – | 97 | – | – | 101 | 108
MDA-MB-436 [14] | – | 91.3 | – | – | 70.5 | 109
MDA-MB-453 | 106 | – | 115 | 113 | – | –
MDA-MB-468 | – | 98.6 | – | – | 104 | 98
MFM-223 [10] | – | 91.7 | – | – | 89.7 | 94.8
SK-BR-3 [11] | – | 101 | – | – | 111 | 113

CCCCCOC(=O)Nc1nc(=O)n([C@@H]2O[C@H](C)[C@@H](O)[C@H]2O)cc1F [Capecitabine]
Conditions | drug sensitivity score
BT-474 | 0
CAL-85-1 [5] | 0
HCC1143 [1] | 0
HCC1599 [4] | 0
HDQ-P1 [8] | 0
MDA-MB-231 [7] | 0
MDA-MB-436 [6] | 0
MFM-223 [2] | 0

Conditions | normalised viability
BT-549, 10 nM | 91.7% and 86.6%
BT-549, 1000 nM | 96% and 104%
CAL-85-1 [13], 3 nM | 87.5% and 102%
CAL-85-1 [13], 30 nM | 88.5% and 90.9%
CAL-85-1 [13], 100 nM | 91.8% and 103%
CAL-120, 10 nM | 82.6% and 98.9%
CAL-120, 1000 nM | 83.9% and 100%
CAL-120, 10000 nM | 91.1% and 96.5%
CAL-148, 3 nM | 91.9% and 96%
CAL-148, 30 nM | 89.1% and 88.1%
CAL-148, 100 nM | 92.8% and 107%
DU-4475, 3 nM | 91.8% and 93.5%
DU-4475, 30 nM | 83.6% and 88.7%
DU-4475, 100 nM | 90.9% and 114%
HCC1143 [9], 10 nM | 77.9% and 97.9%
HCC1143 [9], 1000 nM | 89.9% and 103%
HCC1143 [9], 10000 nM | 84.2% and 91.9%
HCC1599 [12], 10 nM | 99.6% and 100%
HCC1599 [12], 10000 nM | 96.4% and 111%
HCC1937, 10 nM | 80.9% and 86%
HCC1937, 1000 nM | 88% and 75.8%
HCC1937, 10000 nM | 87.6% and 85.8%
HDQ-P1 [16], 3 nM | 94.8% and 95.5%
HDQ-P1 [16], 30 nM | 91.5%
HDQ-P1 [16], 100 nM | 102% and 94.6%
MDA-MB-231 [15], 10 nM | 94.2% and 74.2%
MDA-MB-231 [15], 1000 nM | 108% and 87%
MDA-MB-231 [15], 10000 nM | 110% and 97.4%
MDA-MB-436 [14], 1000 nM | 72.3% and 89%
MDA-MB-436 [14], 10000 nM | 83.6% and 89%
MDA-MB-453, 3 nM | 110% and 101%
MDA-MB-453, 30 nM | 95.9% and 104%
MDA-MB-453, 100 nM | 97% and 94%
MDA-MB-468, 10 nM | 106% and 131%
MDA-MB-468, 1000 nM | 108% and 104%
MDA-MB-468, 10000 nM | 104%
MFM-223 [10], 10 nM | 83.5% and 100%
MFM-223 [10], 1000 nM | 93.6% and 100%
MFM-223 [10], 10000 nM | 90.6% and 99.6%
SK-BR-3 [11], 10 nM | 107% and 86.8%
SK-BR-3 [11], 1000 nM | 108% and 93.6%
SK-BR-3 [11], 10000 nM | 78.4% and 85.5%

NC1(c2ccc(-c3nc4ccn5c(=O)[nH]nc5c4cc3-c3ccccc3)cc2)CCC1 [MK-2206]
Conditions | drug sensitivity score
BT-474 | 3.69
CAL-85-1 [5] | 0
HCC1143 [1] | 0
HCC1599 [4] | 0
HDQ-P1 [8] | 0
MDA-MB-231 [7] | 0
MDA-MB-436 [6] | 2.37
MFM-223 [2] | 4.16
SK-BR-3 [3] | 6.38

normalised viability [%]
Conditions | 0.3 nM | 1 nM | 3 nM | 10 nM | 100 nM | 1000 nM
BT-549 | – | 101 | – | – | 106 | 85.3
CAL-85-1 [13] | 104 | – | 95 | 100 | – | –
CAL-120 | – | 111 | – | – | 106 | 79.2
CAL-148 | 102 | – | 106 | 110 | – | –
DU-4475 | 120 | – | 111 | 107 | – | –
HCC1143 [9] | – | 105 | – | – | 108 | 87.7
HCC1599 [12] | – | 98.8 | – | – | 95.7 | 62.3
HCC1937 | – | 87.4 | – | – | 98.5 | 104
HDQ-P1 [16] | 110 | – | 111 | 109 | – | –
MDA-MB-231 [15] | – | 127 | – | – | 95.9 | 104
MDA-MB-436 [14] | – | 104 | – | – | 80.7 | 81
MDA-MB-453 | 112 | – | 95.2 | 96.6 | – | –
MDA-MB-468 | – | 108 | – | – | 90.7 | 72.9
MFM-223 [10] | – | 109 | – | – | 96.8 | 19.8
SK-BR-3 [11] | – | 107 | – | – | 76.2 | 42.1

O=C(c1cc(Cc2n[nH]c(=O)c3ccccc23)ccc1F)N1CCN(C(=O)C2CC2)CC1 [Olaparib]
Conditions | drug sensitivity score
BT-474 | 0
CAL-85-1 [5] | 0
HCC1143 [1] | 0
HCC1599 [4] | 0
HDQ-P1 [8] | 0
MDA-MB-231 [7] | 0
MDA-MB-436 [6] | 0
MFM-223 [2] | 0
SK-BR-3 [3] | 0.543

normalised viability [%]
Conditions | 3 nM | 10 nM | 30 nM | 100 nM | 1000 nM | 10000 nM
BT-549 | – | 95 | – | – | 90.8 | 84.9
CAL-85-1 [13] | 87.7 | – | 74 | 90.5 | – | –
CAL-120 | – | 78.7 | – | – | 80.5 | 68.6
CAL-148 | 76.5 | – | 87.8 | 83.3 | – | –
DU-4475 | 95.6 | – | 89.2 | 91.6 | – | –
HCC1143 [9] | – | 81.6 | – | – | 92.9 | 80.2
HCC1599 [12] | – | 93.8 | – | – | 114 | 94.2
HCC1937 | – | 78.5 | – | – | 58.4 | 51.2
HDQ-P1 [16] | 95.6 | – | 102 | 103 | – | –
MDA-MB-231 [15] | – | 89.7 | – | – | 88 | 72.2
MDA-MB-436 [14] | – | 113 | – | – | 105 | 95.6
MDA-MB-453 | 109 | – | 92.3 | 100 | – | –
MDA-MB-468 | – | 102 | – | – | 89.8 | 65.8
MFM-223 [10] | – | 98.3 | – | – | 98.8 | 114
SK-BR-3 [11] | – | 103 | – | – | 93.5 | 82.1
